Several values for one entry are separate records, joined by “and”; a condition that tells them apart may be missing. Equal entries are not always repeated.
Assays:
[1] = Drug solubility / drug loading in solvents and compositions; assay type: physicochemical
[2] = Infusion compatibility: 25HC3S diluted in 0.9% sodium chloride infusion bag and eluted through infusion sets (potency, osmolality, pH, appearance); assay type: physicochemical
Protocol: A physical and chemical compatibility study was conducted at a 30 mg, 48 mg and 300 mg 25HC3S dose in 5% dextrose and 0.9% sodium chloride infusion bags. Descriptions of the two kinds of infusion sets tested with 25HC3S product diluted in 5% dextrose and 0.9% sodium chloride are listed in Table 15. The tubing in catalog number 2H8480 infusion set was composed of polyvinylchloride (PVC), while the tubing in catalog number 2C8858 was polyethylene lined except for a short pump segment (approximately 12 inches) which was composed of PVC.
25HC3S for Injection and Vehicle for 25HC3S for Injection, that had been stored at 2-8° C. for approximately 16 months, were used for the compatibility study. After constitution, 30 mg (1.0 mL of constituted product), 48 mg (1.6 mL of constituted product) or 300 mg (10 mL of constituted product) were added to 100 mL infusion bags of 5% dextrose and 0.9% sodium chloride, mixed thoroughly, and stored for 24 hours at room temperature and at 2-8° C. […] Taking into consideration the overfill per infusion bag and the additional volume introduced by adding the constituted 25HC3S product to each bag, the expected concentrations of 25HC3S were 0.28 mg/mL, 0.44 mg/mL, and 2.56 mg/mL in the infusion bags. Two kinds of infusion sets were then attached to the drug containing infusion bags, and the entire contents were eluted through the infusion sets at approximately 50 mL/hour at room temperature. Samples were collected from the 25HC3S prepared infusion bags at T=0 and at 24 hours, and from the total eluent passed through the infusion sets, and tested for 25HC3S concentration using HPLC. Solution visual appearance, osmolality (using method USP<785>), and pH (using method USP<791>) were also measured on the collected samples.

[3] = 0.9% sodium chloride bag, approx. 0.28 mg/mL 25HC3S
[4] = 0.9% sodium chloride bag, approx. 0.44 mg/mL 25HC3S
[5] = 0.9% sodium chloride bag, approx. 2.56 mg/mL 25HC3S
[6] = 0.9% sodium chloride, approx. 0.28 mg/mL, bag 24 h at 2-8° C., Baxter 2C8858
[7] = 0.9% sodium chloride, approx. 0.28 mg/mL, bag 24 h at 2-8° C., Baxter 2H8480
[8] = 0.9% sodium chloride, approx. 0.28 mg/mL, bag 24 h at 25° C., Baxter 2C8858
[9] = 0.9% sodium chloride, approx. 0.28 mg/mL, bag 24 h at 25° C., Baxter 2H8480
[10] = 0.9% sodium chloride, approx. 0.44 mg/mL, bag 24 h at 2-8° C., Baxter 2C8858
[11] = 0.9% sodium chloride, approx. 0.44 mg/mL, bag 24 h at 2-8° C., Baxter 2H8480
[12] = 0.9% sodium chloride, approx. 0.44 mg/mL, bag 24 h at 25° C., Baxter 2C8858
[13] = 0.9% sodium chloride, approx. 0.44 mg/mL, bag 24 h at 25° C., Baxter 2H8480
[14] = 0.9% sodium chloride, approx. 2.56 mg/mL, bag 24 h at 2-8° C., Baxter 2C8858
[15] = 0.9% sodium chloride, approx. 2.56 mg/mL, bag 24 h at 2-8° C., Baxter 2H8480
[16] = 0.9% sodium chloride, approx. 2.56 mg/mL, bag 24 h at 25° C., Baxter 2C8858
[17] = 0.9% sodium chloride, approx. 2.56 mg/mL, bag 24 h at 25° C., Baxter 2H8480
[18] = sodium chloride, approximately 0.28 mg/mL 25HC3S
[19] = sodium chloride, approximately 0.44 mg/mL 25HC3S
[20] = sodium chloride, approximately 2.56 mg/mL 25HC3S

C[C@H](CCCC(C)(C)O)[C@H]1CC[C@H]2[C@@H]3CC=C4C[C@@H](OS(=O)(=O)[O-])CC[C@]4(C)[C@H]3CC[C@]12C.[Na+] [Formulation 25HC3S, 5-cholesten-3, 25-diol, 3-sulfate]
state of drug in the prepared compositions ([1]; 6 wt % 25HC3S, compositions of Tables 31 and 32): all in solution | maximum drug loading achieved ([1]; Carbopol based creams or gels): 1 wt % | drug solubility ([1]; in EtOH): ~3 mg/mL | drug solubility ([1]; in PEG 400): ~130 mg/mL | drug solubility ([1]; in PG): ~30 mg/mL | 24 Hours at 2-8° C. Concentration [2, 3]: 0.275 mg/mL | 24 Hours at 2-8° C. Osmolality [2, 3]: 276 mmol/kg | 24 Hours at 2-8° C. pH [2, 3]: 5.87 and 5.99 | 24 Hours at 25° C. Concentration [2, 3]: 0.272 mg/mL and 0.274 mg/mL | 24 Hours at 25° C. Osmolality [2, 3]: 275 mmol/kg and 277 mmol/kg | 24 Hours at 25° C. pH [2, 3]: 5.93 and 5.92 | T = 0 Conc. [2, 3]: 0.273 mg/mL and 0.274 mg/mL and 0.275 mg/mL | T = 0 Osmolality [2, 3]: 278 mmol/kg and 277 mmol/kg | T = 0 pH [2, 3]: 6.39 and 6.43 and 6.45 and 6.40 | 24 Hours at 2-8° C. % Remaining Compared to T = 0 [2, 4]: (100.0%) | 24 Hours at 2-8° C. Concentration [2, 4]: 0.434 mg/mL and 0.425 mg/mL | 24 Hours at 2-8° C. Osmolality [2, 4]: 281 mmol/kg | 24 Hours at 2-8° C. pH [2, 4]: 7.43 and 7.19 | 24 Hours at 25° C. % Remaining Compared to T = 0 [2, 4]: (100.0%) | 24 Hours at 25° C. Concentration [2, 4]: 0.434 mg/mL and 0.424 mg/mL | 24 Hours at 25° C. Osmolality [2, 4]: 280 mmol/kg | 24 Hours at 25° C. pH [2, 4]: 7.33 and 7.41 | T = 0 Conc. [2, 4]: 0.434 mg/mL and 0.424 mg/mL and 0.425 mg/mL | T = 0 Osmolality [2, 4]: 277 mmol/kg and 279 mmol/kg and 284 mmol/kg and 280 mmol/kg | T = 0 pH [2, 4]: 7.30 and 7.43 and 7.21 and 7.44 | 24 Hours at 2-8° C. Concentration [2, 5]: 2.510 mg/mL and 2.520 mg/mL | 24 Hours at 2-8° C. Osmolality [2, 5]: 283 mmol/kg | 24 Hours at 2-8° C. pH [2, 5]: 5.93 and 5.96 | 24 Hours at 25° C. Concentration [2, 5]: 2.500 mg/mL and 2.525 mg/mL | 24 Hours at 25° C. Osmolality [2, 5]: 282 mmol/kg | 24 Hours at 25° C. pH [2, 5]: 6.01 and 5.86 | T = 0 Conc. [2, 5]: 2.450 mg/mL and 2.530 mg/mL and 2.525 mg/mL | T = 0 Osmolality [2, 5]: 282 mmol/kg and 281 mmol/kg | T = 0 pH [2, 5]: 6.20 and 6.10 and 6.07 and 6.11 | After Storage in Infusion Bag and Collection from Infusion Set % Remaining Compared to T = 0 [2, 6]: (100.0%) | After Storage in Infusion Bag and Collection from Infusion Set Concentration [2, 6]: 0.275 mg/mL | After Storage in Infusion Bag and Collection from Infusion Set Osmolality [2, 6]: 276 mmol/kg | After Storage in Infusion Bag and Collection from Infusion Set pH [2, 6]: 5.78 | After Storage in Infusion Bag and Collection from Infusion Set % Remaining Compared to T = 0 [2, 7]: (100.4%) | After Storage in Infusion Bag and Collection from Infusion Set Concentration [2, 7]: 0.275 mg/mL | After Storage in Infusion Bag and Collection from Infusion Set Osmolality [2, 7]: 277 mmol/kg | After Storage in Infusion Bag and Collection from Infusion Set pH [2, 7]: 5.81 | After Storage in Infusion Bag and Collection from Infusion Set % Remaining Compared to T = 0 [2, 8]: (100.0%) | After Storage in Infusion Bag and Collection from Infusion Set Concentration [2, 8]: 0.274 mg/mL | After Storage in Infusion Bag and Collection from Infusion Set Osmolality [2, 8]: 276 mmol/kg | After Storage in Infusion Bag and Collection from Infusion Set pH [2, 8]: 5.83 | After Storage in Infusion Bag and Collection from Infusion Set % Remaining Compared to T = 0 [2, 9]: (99.6%) | After Storage in Infusion Bag and Collection from Infusion Set Concentration [2, 9]: 0.272 mg/mL | After Storage in Infusion Bag and Collection from Infusion Set Osmolality [2, 9]: 276 mmol/kg | After Storage in Infusion Bag and Collection from Infusion Set pH [2, 9]: 5.78 | After Storage in Infusion Bag and Collection from Infusion Set % Remaining Compared to T = 0 [2, 10]: (100.2%) | After Storage in Infusion Bag and Collection from Infusion Set Concentration [2, 10]: 0.426 mg/mL | After Storage in Infusion Bag and Collection from Infusion Set Osmolality [2, 10]: 281 mmol/kg | After Storage in Infusion Bag and Collection from Infusion Set pH [2, 10]: 7.16 | After Storage in Infusion Bag and Collection from Infusion Set % Remaining Compared to T = 0 [2, 11]: (100.0%) | After Storage in Infusion Bag and Collection from Infusion Set Concentration [2, 11]: 0.434 mg/mL | After Storage in Infusion Bag and Collection from Infusion Set Osmolality [2, 11]: 282 mmol/kg | After Storage in Infusion Bag and Collection from Infusion Set pH [2, 11]: 7.13 | After Storage in Infusion Bag and Collection from Infusion Set % Remaining Compared to T = 0 [2, 12]: (100.0%) | After Storage in Infusion Bag and Collection from Infusion Set Concentration [2, 12]: 0.424 mg/mL | After Storage in Infusion Bag and Collection from Infusion Set Osmolality [2, 12]: 288 mmol/kg | After Storage in Infusion Bag and Collection from Infusion Set pH [2, 12]: 7.20 | After Storage in Infusion Bag and Collection from Infusion Set % Remaining Compared to T = 0 [2, 13]: (99.8%) | After Storage in Infusion Bag and Collection from Infusion Set Concentration [2, 13]: 0.433 mg/mL | After Storage in Infusion Bag and Collection from Infusion Set Osmolality [2, 13]: 286 mmol/kg | After Storage in Infusion Bag and Collection from Infusion Set pH [2, 13]: 7.09 | After Storage in Infusion Bag and Collection from Infusion Set % Remaining Compared to T = 0 [2, 14]: (99.8%) | After Storage in Infusion Bag and Collection from Infusion Set Concentration [2, 14]: 2.520 mg/mL | After Storage in Infusion Bag and Collection from Infusion Set Osmolality [2, 14]: 283 mmol/kg | After Storage in Infusion Bag and Collection from Infusion Set pH [2, 14]: 5.70 | After Storage in Infusion Bag and Collection from Infusion Set % Remaining Compared to T = 0 [2, 15]: (100.0%) | After Storage in Infusion Bag and Collection from Infusion Set Concentration [2, 15]: 2.530 mg/mL | After Storage in Infusion Bag and Collection from Infusion Set Osmolality [2, 15]: 283 mmol/kg | After Storage in Infusion Bag and Collection from Infusion Set pH [2, 15]: 5.72 | After Storage in Infusion Bag and Collection from Infusion Set % Remaining Compared to T = 0 [2, 16]: (99.6%) | After Storage in Infusion Bag and Collection from Infusion Set Concentration [2, 16]: 2.520 mg/mL | After Storage in Infusion Bag and Collection from Infusion Set Osmolality [2, 16]: 279 mmol/kg | After Storage in Infusion Bag and Collection from Infusion Set pH [2, 16]: 5.83 | After Storage in Infusion Bag and Collection from Infusion Set % Remaining Compared to T = 0 [2, 17]: (100.4%) | After Storage in Infusion Bag and Collection from Infusion Set Concentration [2, 17]: 2.460 mg/mL | After Storage in Infusion Bag and Collection from Infusion Set Osmolality [2, 17]: 283 mmol/kg | After Storage in Infusion Bag and Collection from Infusion Set pH [2, 17]: 5.81 | deviation of 25HC3S concentrations from the initial T=0 time point ([2]; 0.9% sodium chloride, after 24 hours at room temperature and at 2-8° C., and after elution through infusion sets): ≤ 2.0% | osmolality trend ([2]; sodium chloride drug containing solutions): no consistent trends over time in the infusion bag or after elution through the infusion sets | solution visual appearance ([2]; sodium chloride, all three concentrations, after 24 hours in bags and after elution): remained as clear and colorless solutions | decrease of pH over 24 hours in the infusion bags [2, 18]: ~0.5 pH unit | pH change after elution through the infusion sets [2, 18]: decrease by approximately a tenth of a pH | pH change after elution through the infusion sets [2, 19]: decrease by a few tenths of a pH | pH trend over time in the infusion bags [2, 19]: no consistent trends over time in the infusion bags | pH change after elution through the infusion sets [2, 20]: drop by a few tenths of a pH | pH change over time in the infusion bags [2, 20]: slight decrease by a tenth of a pH

Source: patent US20190374554A1, “USE OF OXYGENATED CHOLESTEROL SULFATES (OCS) TO TREAT INFLAMMATORY SKIN DISEASE AND SKIN LESIONS” (Virginia Commonwealth University, priority 2016, published 2019)
